Test results from patent US8039514B2, “Sulfonamide compounds and use thereof” (Asahi Kasei Pharma Corporation, priority 2008, dated 2011).

Target: T1, human calcium-sensing receptor (CaSR) (Homo sapiens, UniProt P41180)
T1 construct: expressed in transfected cells
T1 sequence (P41180 20-1078): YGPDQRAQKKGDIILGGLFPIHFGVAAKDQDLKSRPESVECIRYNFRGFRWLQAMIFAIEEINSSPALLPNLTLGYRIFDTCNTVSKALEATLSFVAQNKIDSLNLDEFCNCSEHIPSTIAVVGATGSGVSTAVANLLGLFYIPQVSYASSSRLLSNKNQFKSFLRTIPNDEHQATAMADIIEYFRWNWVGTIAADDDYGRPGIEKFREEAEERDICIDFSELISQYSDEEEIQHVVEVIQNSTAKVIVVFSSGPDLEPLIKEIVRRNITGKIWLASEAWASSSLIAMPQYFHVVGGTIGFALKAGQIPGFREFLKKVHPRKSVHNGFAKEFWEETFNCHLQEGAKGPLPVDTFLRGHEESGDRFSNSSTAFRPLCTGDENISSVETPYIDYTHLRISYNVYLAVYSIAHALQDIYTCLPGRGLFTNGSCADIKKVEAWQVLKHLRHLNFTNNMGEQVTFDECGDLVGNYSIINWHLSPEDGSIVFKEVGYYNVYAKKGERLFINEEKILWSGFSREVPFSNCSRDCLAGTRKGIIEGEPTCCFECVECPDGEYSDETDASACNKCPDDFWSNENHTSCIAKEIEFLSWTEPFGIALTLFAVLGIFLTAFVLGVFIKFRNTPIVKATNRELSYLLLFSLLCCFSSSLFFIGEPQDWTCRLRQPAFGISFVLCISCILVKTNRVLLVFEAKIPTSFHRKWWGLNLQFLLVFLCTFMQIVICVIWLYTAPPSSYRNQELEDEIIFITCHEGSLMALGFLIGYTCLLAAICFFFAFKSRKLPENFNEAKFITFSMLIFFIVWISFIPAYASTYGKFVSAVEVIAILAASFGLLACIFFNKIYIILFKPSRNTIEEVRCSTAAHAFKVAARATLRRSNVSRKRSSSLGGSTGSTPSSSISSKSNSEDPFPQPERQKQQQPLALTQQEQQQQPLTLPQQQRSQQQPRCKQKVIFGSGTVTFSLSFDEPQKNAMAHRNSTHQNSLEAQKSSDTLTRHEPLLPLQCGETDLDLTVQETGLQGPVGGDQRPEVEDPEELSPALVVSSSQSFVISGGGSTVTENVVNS
Assay: intracellular Ca assay, CaSR antagonist activity in HEK293/hCaSR cells
Type: cell-based
Conditions: Fura2-AM, inhibition of response to calcium chloride ligand solution, read-out: IC50 values according to the intracellular Ca assay (CaSR antagonist activity)
Protocol: HEK293 cells stably expressing human calcium-sensing receptor (CaSR) (termed HEK293/hCaSR cells) were used. HEK293/hCaSR cells were cultured in a culture medium [DMEM medium containing 0.5 mg/mL Geneticin, 50 Unit/mL penicillin, 50 μg/mL streptomycin and 10% fetal bovine serum (FBS), all manufactured by Invitrogen] to semiconfluent in an incubator at 37° C. under 5% carbon dioxide atmosphere.
Cultured cells were washed with phosphate buffered saline (PBS(−), manufactured by Dainippon Sumitomo Pharmaceutical Company) which had been prewarmed to 37° C., added with PBS(−) containing 10 mM ethylenediamine tetraacetic acid (EDTA), and then incubated in an incubator at 37° C. for 10 minutes. After adding the culture medium to separate the cells, cell suspension was transferred to a centrifuge tube. Cells were collected by centrifuge at 1,500 rpm for 3 minutes, and resuspended in Ca assay buffer [20 mM HEPES buffer (pH 7.4), 115 mM sodium chloride, 5.4 mM potassium chloride, 0.8 mM magnesium chloride, 0.8 mM calcium chloride, 13.8 mM D(+)-glucose (all manufactured by Wako Pure Chemicals) and 0.1% bovine serum albumin (manufactured by SIGMA)] containing 0.2% Pluronic F-127 (manufactured by Molecular Probes) and […] Fura2-AM (manufactured by DOJINDO LABORATORIES) to obtain a cell suspension of 5×10^6 cells/mL. After incubating at 37° C. for 30 minutes, the cells were washed twice with the Ca assay buffer and suspended in the same buffer to obtain a cell suspension of 1×10^6 cells/60 μL. 60 μL of the cell suspension was aliquoted to each well of a 96 well UV microplate (manufactured by Corning Co.) to give a cell plate.
The test compound was diluted with the Ca assay buffer to five times the final concentration and then 80 μL of the diluted compound was applied to each well of a 96 well round bottomed microplate (manufactured by Corning Co.) to give a sample plate. 80 μL of the Ca assay buffer containing 7.5 mM calcium chloride (i.e., ligand solution) was applied to each well of a 96 well round bottomed microplate to give a ligand plate. Then, thus prepared sample plate, ligand plate, and the cell plate were placed in Functional Drug Screening System (FDSS) 4000 (manufactured by Hamamatsu Photonics K.K.) which had been preswitched on and prewarmed to 37° C. Measurements were then carried out as follows. After incubating the cell plate for 180 seconds, fluorescence intensity was measured every two seconds (excitation wavelength; 340 nm and 380 nm, measurement wavelength; 500 nm). After the measurement for 40 seconds, 20 μL of the test compound solution from the sample plate was added to the cell plate, followed by continuous measurement for 160 seconds. Then, 20 μL of the ligand solution from the ligand plate was added to the cell plate, followed by continuous measurement for 100 seconds.
Amount of change in intracellular Ca concentration is indicated as a peak height of the ratio of the fluorescence intensity with excitation of 340 nm and 380 nm (i.e., fluorescence intensity with excitation at 340 nm/fluorescence intensity with excitation at 380 nm) that is obtained from the difference between the maximum ratio after adding the ligand solution and the ratio before adding the ligand solution. Further, when the peak height obtained from the Ca assay buffer containing no test compound has inhibition ratio of 0% while the peak height obtained from the Ca assay buffer containing no calcium chloride as a ligand solution has inhibition ratio of 100%, inhibition ratio for each test compound (i.e., CaSR antagonist activity) was calculated.

| SMILES | IC50 |
| --- | --- |
| CN(C[C@H](O)CNC(C)(C)Cc1ccc2ccccc2c1)S(=O)(=O)c1ccccc1-c1cccc(C=CC(=O)O)c1 [Exp. 3-1, (R)-3-(2′-(N-(2-hydroxy-3-(2-methyl-1-(naphthalen-2-yl)propan-2-ylamino)propyl)-N-methylsulfamoyl)biphenyl-3-yl)acrylic acid] | 300 to 1000 nM |
| CN(C[C@H](O)CNC(C)(C)Cc1ccc2ccccc2c1)S(=O)(=O)c1cccc(-c2cccc(C(=O)O)c2)c1 [Exp. 3-5, (R)-3′-(N-(2-hydroxy-3-(2-methyl-1-(naphthalen-2-yl)propan-2-ylamino)propyl)-N-methylsulfamoyl)biphenyl-3-carboxylic acid] | ≤ 300 nM |
| CN(C[C@H](O)CNC(C)(C)Cc1ccc2ccccc2c1)S(=O)(=O)c1cccc(-c2ccc(C(=O)O)cc2)c1 [Exp. 3-6, (R)-3′-(N-(2-hydroxy-3-(2-methyl-1-(naphthalen-2-yl)propan-2-ylamino)propyl)-N-methylsulfamoyl)biphenyl-4-carboxylic acid] | 300 to 1000 nM |
| Cc1ccc(-c2cccc(S(=O)(=O)N(C)C[C@H](O)CNC(C)(C)Cc3ccc4ccccc4c3)c2)cc1C(=O)O [Exp. 3-7, (R)-3′-(N-(2-hydroxy-3-(2-methyl-1-(naphthalen-2-yl)propan-2-ylamino)propyl)-N-methylsulfamoyl)-4-methylbiphenyl-3-carboxylic acid] | 300 to 1000 nM |
| Cc1cc(-c2cccc(S(=O)(=O)N(C)C[C@H](O)CNC(C)(C)Cc3ccc4ccccc4c3)c2)ccc1C(=O)O [Exp. 3-8, (R)-3′-(N-(2-hydroxy-3-(2-methyl-1-(naphthalen-2-yl)propan-2-ylamino)propyl)-N-methylsulfamoyl)-3-methylbiphenyl-4-carboxylic acid] | ≤ 300 nM |
| CN(C[C@H](O)CNC(C)(C)Cc1ccc2ccccc2c1)S(=O)(=O)c1cccc(-c2ccc(C(=O)O)c(F)c2)c1 [Exp. 3-9, (R)-3-fluoro-3′-(N-(2-hydroxy-3-(2-methyl-1-(naphthalen-2-yl)propan-2-ylamino)propyl)-N-methylsulfamoyl)biphenyl-4-carboxylic acid] | 300 to 1000 nM |
| CN(C[C@H](O)CNC(C)(C)Cc1ccc2ccccc2c1)S(=O)(=O)c1cccc(-c2ccc(C(=O)O)c(N)c2)c1 [Exp. 3-10, (R)-3-amino-3′-(N-(2-hydroxy-3-(2-methyl-1-(naphthalen-2-yl)propan-2-ylamino)propyl)-N-methylsulfamoyl)biphenyl-4-carboxylic acid] | ≤ 300 nM |
| CN(C[C@H](O)CNC(C)(C)Cc1ccc2ccccc2c1)S(=O)(=O)c1cccc(-c2ccc(C(=O)O)c(Cl)c2)c1 [Exp. 3-11, (R)-3-chloro-3′-(N-(2-hydroxy-3-(2-methyl-1-(naphthalen-2-yl)propan-2-ylamino)propyl)-N-methylsulfamoyl)biphenyl-4-carboxylic acid] | 300 to 1000 nM |
| CN(C[C@H](O)CNC(C)(C)Cc1ccc2ccccc2c1)S(=O)(=O)c1cccc(-c2ccc(C(=O)O)cc2F)c1 [Exp. 3-12, (R)-2-fluoro-3′-(N-(2-hydroxy-3-(2-methyl-1-(naphthalen-2-yl)propan-2-ylamino)propyl)-N-methylsulfamoyl)biphenyl-4-carboxylic acid] | 300 to 1000 nM |
| CN(C[C@H](O)CNC(C)(C)Cc1ccc2ccccc2c1)S(=O)(=O)c1cccc(-c2cc3c(c(C(=O)O)c2)OCC3)c1 [Exp. 3-13, (R)-5-(3-(N-(2-hydroxy-3-(2-methyl-1-(naphthalen-2-yl)propan-2-ylamino)propyl)-N-methylsulfamoyl)phenyl)-2,3-dihydrobenzofuran-7-carboxylic acid] | 1000 to 3000 nM |
| CN(C[C@H](O)CNC(C)(C)Cc1ccc2ccccc2c1)S(=O)(=O)c1cccc(-c2ccc(C=CC(=O)O)cc2)c1 [Exp. 3-14, (R)-3-(3′-(N-(2-hydroxy-3-(2-methyl-1-(naphthalen-2-yl)propan-2-ylamino)propyl)-N-methylsulfamoyl)biphenyl-4-yl)acrylic acid] | 300 to 1000 nM |
| CN(C[C@H](O)CNC(C)(C)Cc1ccc2ccccc2c1)S(=O)(=O)c1cccc(-c2ccc(CCC(=O)O)cc2)c1 [Exp. 3-15, (R)-3-(3′-(N-(2-hydroxy-3-(2-methyl-1-(naphthalen-2-yl)propan-2-ylamino)propyl)-N-methylsulfamoyl)biphenyl-4-yl)propionic acid] | 300 to 1000 nM |
| CN(C[C@H](O)CNC(C)(C)Cc1ccc2ccccc2c1)S(=O)(=O)c1cccc(-c2cccc(C=CC(=O)O)c2)c1 [Exp. 3-16, (R)-3-(3′-(N-(2-hydroxy-3-(2-methyl-1-(naphthalen-2-yl)propan-2-ylamino)propyl)-N-methylsulfamoyl)biphenyl-3-yl)acrylic acid] | 1000 to 3000 nM |
| CN(C[C@H](O)CNC(C)(C)Cc1ccc2ccccc2c1)S(=O)(=O)c1cccc(-c2cc(N)cc(C(=O)O)c2)c1 [Exp. 3-17, (R)-5-amino-3′-(N-(2-hydroxy-3-(2-methyl-1-(naphthalen-2-yl)propan-2-ylamino)propyl)-N-methylsulfamoyl)biphenyl-3-carboxylic acid] | 300 to 1000 nM |
| CN(C[C@H](O)CNC(C)(C)Cc1ccc2ccccc2c1)S(=O)(=O)c1cccc(-c2cc(C(=O)O)cc([N+](=O)[O-])c2)c1 [Exp. 3-18, (R)-3′-(N-(2-hydroxy-3-(2-methyl-1-(naphthalen-2-yl)propan-2-ylamino)propyl)-N-methylsulfamoyl)-5-nitrobiphenyl-3-carboxylic acid] | 1000 to 3000 nM |
| CN(C[C@H](O)CNC(C)(C)Cc1ccc2ccccc2c1)S(=O)(=O)c1cccc(-c2ccc(C(=O)O)cc2N)c1 [Exp. 3-19, (R)-2-amino-3′-(N-(2-hydroxy-3-(2-methyl-1-(naphthalen-2-yl)propan-2-ylamino)propyl)-N-methylsulfamoyl)biphenyl-4-carboxylic acid] | 300 to 1000 nM |
| CN(C[C@H](O)CNC(C)(C)Cc1ccc2ccccc2c1)S(=O)(=O)c1cccc(-c2ccc(C(=O)O)cc2[N+](=O)[O-])c1 [Exp. 3-20, (R)-3′-(N-(2-hydroxy-3-(2-methyl-1-(naphthalen-2-yl)propan-2-ylamino)propyl)-N-methylsulfamoyl)-2-nitrobiphenyl-4-carboxylic acid] | 1000 to 3000 nM |
